Experimental data as given in PMC9057582, “HIF inhibitor 32-134D eradicates murine hepatocellular carcinoma in combination with anti-PD1 therapy” (The Journal of Clinical Investigation, 2022).

Tests used:
[1] = test system: HIF transcriptional activity; assay: HIF-dependent luciferase reporter assay (FLuc/RLuc ratio) in Hep3B-c1 cells; type: cell-based; settings: Homo sapiens, 1% O2, 24 hours, read-out: IC50, inhibition of HIF-dependent reporter gene expression
Source text: The NCI CellMiner database contains expression data for over 25,000 mRNAs in 60 human cancer cell lines that have been exposed to more than 20,000 chemical compounds ([49]). We searched CellMiner for a compound that induced changes in gene expression that were highly correlated with those induced by acriflavine, but which was structurally unrelated to acriflavine. Compounds that satisfied the above criteria were identified and subsequently analyzed in Hep3B-c1 cells ([50]), which are stably transfected with HIF-dependent reporter plasmid p2.1, in which firefly luciferase (FLuc) coding sequences are located downstream from a hypoxia-response element (HRE) and a basal SV40 promoter; and control reporter pSVR, in which Renilla luciferase (RLuc) coding sequences are downstream of the basal SV40 promoter only (Figure 1A). The FLuc/RLuc ratio in cells exposed to 1% O2 for 24 hours is a specific measure of HIF-dependent gene expression.
Figure 1 Identification of HIF inhibitors. (A) Hep3B-c1 cells were stably transfected with firefly luciferase (FLuc) reporter p2.1, which contains a hypoxia-response element (HRE), and Renilla luciferase (RLuc) reporter pSVR. (B) Hep3B-c1 cells were incubated with vehicle (Veh; 0.1% DMSO; blue bars) or 10 μM 32-134D (red bars) at 20% O2 (n = 6) or 1% O2 (n = 12) for 24 hours. Cell lysates were assayed for Fluc/Rluc activity (mean ± SEM); *P < 0.05 versus vehicle (χ^2 test). (C) Chemical structures and IC50 values for HIF inhibitors. (D and E) Hep3B cells were exposed to 20% O2 with vehicle, or 1% O2 with vehicle (blue bar), 32-134D (red bars), 33-063 (green bars), or PT2385 (brown bars) for 24 hours and CA9 (D) and EPO (E) mRNAs were quantified by RT-qPCR. […] (F) Hep3B cells were exposed to 20% or 1% O2 in the presence of vehicle or 1% O2 in the presence of 5 μM 32-134D (n = 3 each) for 24 hours. […]
Hep3B-c1 cells ([50]) were seeded on 24-well plates. […] FLuc/RLuc ratios were determined using the Dual Luciferase Reporter Assay System (Supplemental Table 6) and the VICTOR Nivo plate reader (PerkinElmer).

[2] = test system: Hepa1-6 mouse HCC cells; assay: RT-qPCR of hypoxia-induced gene expression in Hepa1-6 cells; type: cell-based; settings: Hepa1-6, 1% O2, 24 hours
Experimental: Next, we analyzed Hepa1-6, which is a mouse HCC cell line. […] CXCL1, IL-6, and IL-10 were not induced by hypoxia, whereas hypoxia-induced IL-22 expression was inhibited by 32-134D (P < 0.05; Figure 3C).
Figure 3 Effect of 32-134D treatment on hypoxia-induced gene expression in Hepa1-6 cells. (A–C) Cells were exposed to 20% O2 and vehicle (white bars), 1% O2 and vehicle (blue bars), or 1% O2 and 32-134D (red bars) for 24 hours and mRNAs were quantified by RT-qPCR and normalized to white (mean ± SEM, n = 4). *P < 0.05 versus white; ^#P < 0.05 versus blue (ANOVA with Bonferroni’s post hoc test).
RNA was extracted using TRIzol Reagent. Quantitative real-time PCR was conducted using SYBR Green PCR Master Mix and reactions were run using a Bio-Rad thermal cycler. Primer sequences and reagent sources are listed in Supplemental Table 5. The mRNA expression of target genes was normalized to the expression of 18S rRNA and the fold change (FC) was calculated based on the threshold cycle (Ct) as FC = 2^–Δ(ΔCt), where ΔCt = Cttarget gene – Ct18S rRNA and Δ(ΔCt) = ΔCttreatment – ΔCtcontrol. For RNA-seq, total RNA was isolated and treated with DNase (Qiagen). The JHU GRCF High-Throughput Sequencing facility prepared libraries and performed RNA-seq. The RNA-seq data were processed and interpreted using Genialis Expressions software (https://www.genialis.com/expressions/). An automated data analysis pipeline run in the Genialis platform consisted of the following: Sequence quality checks were performed on raw and trimmed reads with FastQC. Bbduk was used to trim adapters and filter out poor quality reads. Trimmed reads were then mapped to the STAR index (ENSEMBL 100) reference genome using the STAR ([93]) aligner. Gene expression levels were quantified with featureCounts ([94]), and differential gene expression analyses were performed with DESeq2 ([95]). […] Differential expression was determined with an FDR of less than 0.05 and mRNA FC of greater than 1.5 to identify hypoxia-induced genes and genes inhibited by 32-134D. Data used in this study have been deposited in the NCBI Gene Expression Omnibus database (GEO GSE195997).
Supplemental Figure 7. Effect of 32-134D on gene expression in Hepa1-6 cells. Cells were exposed to 20% O2 and vehicle (white bar) or 1% O2 and vehicle (blue bar), 2.5-10 […]
for 24 hours and mRNAs were quantified by RT-qPCR and normalized to white (mean + SEM, n = 4). *p < 0.05 vs white; #p < 0.05 vs blue (ANOVA with Bonferroni post-test).
(1 picture or pasted object on this page, not shown here)

Brc1ccc2c(-c3csc(-c4c[nH]c5c(Br)cccc45)n3)c[nH]c2c1 [Compound 32-134D]
IC50 [1]: 2500 nM | RPL13A mRNA expression [2]: no effect | hypoxic induction of PDL1 mRNA [2]: induced in vehicle-treated but not in 32-134D–treated cells | hypoxia-induced ANGPTL4, EPO, PGF, and VEGFA mRNA expression ([2]; 2.5-10 µM): significant dose-dependent inhibition | hypoxia-induced IL-22 expression ([2]; P < 0.05): inhibited | hypoxia-induced expression of SLC2A1, LDHA, ENTPD1, and CA9 mRNA ([2]; P < 0.05): inhibited | hypoxic induction of B7H4 and TIM3 mRNA ([2]; P < 0.05): hypoxia-induced expression in vehicle-treated but not in 32-134D–treated cells
